Measurements as given in patent US20230414626A1, “INDUCTION OF FERROPTOSIS FOR CANCER THERAPY” (Memorial Sloan Kettering Cancer Center, priority 2020, published 2023).

Assays:
[1] = tested on: BT474 cells; experiment: Cell death quantification (Sytox Green), RSL3-induced ferroptosis; format: cell-based, human; settings: RSL3 0.5-1 μM, GDC-0941 2 μM, MK-2206 2 μM, Torin 1 μM, CCI-779 0.5 μM, Fatostatin A 5 μM, CAY10566 5 μM
Experimental: (§1) FIG. 1 A-D. Oncogenic activation of the PI3K-AKT-mTOR signaling pathway confers resistance to ferroptosis. (A) Genetic background of the analyzed cancer cell lines and their sensitivity to RSL3. (B) Cells were seeded in 96-well plate, 2×10^4 cells per well and incubated overnight. Cell death was induced by 24-h treatment of RSL3 with indicated concentrations. Cell death were measured by Sytox Green staining, as detailed in Methods. (C) Indicated protein components in the PI3K-AKT pathway were detected by western blot in indicated cell types. (D) Cells were treated with or without PI3K inhibitor GDC-0941 (2 μM), AKT inhibitor MK-2206 (2 μM), RSL3 (1 μM), or ferroptosis inhibitor Ferrostatin-1 (Fer-1, 1 μM) as indicated for 12 h (BT474) or 24 h (MDA-MB-453). Cell death was measured. Indicators for P values (same in all other figures): ****, P≤0.0001; *** P≤0.001; **, P≤0.01; *, P≤0.05; ns, P>0.05
(§2) FIG. 2 A-E. mTORC1, instead of mTORC2, suppresses ferroptosis. (A) MDA-MB-453 and BT474 were treated with CCI-779 (0.5 μM), RSL3 (1 μM for MDA-MB-453 cells and 0.5 μM for BT474 cells), and Fer-1 (1 μM) as indicated. (B) Cells were seeded in 6-well plate, 4×10^5 cells per well and incubated overnight. MDA-MB-453 and BT474 cells were treated as indicated. CCI-779, 0.5 μM; RSL3, 1 μM for MDA-MB-453 cells and 0.5 μM for BT474 cells; Fer-1, 1 μM. Cells were stained with 5 μM C1I-BODIPY followed by flow cytometry after 8 h-treatment. (C) 3D spheroids were treated as indicated. CCI-779, 0.5 μM; RSL3, 0.5 μM; Fer-1, 1 μM. Top panel, dead cells were stained by SYTOX Green (scale bar, 100 μm). Bottom panel, cell viability was assayed by measuring cellular ATP levels. (D) Cells expressing shRNAs targeting RPTOR or RICTOR were treated as indicated. CCI-779, 0.5 μM; RSL3, 0.5 μM; Fer-1, 1 μM. (E) Lipid peroxidation of samples as in panel D were measured.
(§3) FIG. 5 A-H. SREBP1 protects cells from ferroptosis through SCD1 activity. (A) The expression of SREBP1, and its targets SCD1, FASN, and ACACA, in control and SREBF1-sgRNA cells were detected by western blot. (B) The mRNA level of SREPF1 and its targets gene SCD were measured by RT-PCR. (C) Cells were pretreated with or without 5 μM CAY10566 overnight, and then subjected to the indicated treatments. RSL3, 0.5 μM for BT474 cells and 1 μM for MDA-MB-453 cells; CAY10566, 5 μM; Fer-1, 1 μM. (D) Cells expressing control or SCD-sgRNA were treated as indicated. RSL3, 1 μM for MDA-MB-453 cells and 0.5 μM for BT474 cells; Fer-1, 1 μM. (E) 3D spheroids derived from BT474 cells harboring control or SCD-sgRNA were treated as indicated. RSL3, 0.5 μM; CCI-779, 0.5 μM; Fer-1, 1 μM. Left, cell death staining (scale bar, 100 m). Right, cell viability. (F) SCD1 was overexpressed in BT474 cells and determined by western blot. Cells were treated as indicated. RSL3, 0.5 μM; CCI-779, 0.5 μM. (G) 3D spheroids derived from BT474 cells with control or SCD1 overexpression were treated as indicated. RSL3, 0.5 μM; CCI-779, 0.5 μM; Fer-1, 1 μM. Left, cell death staining (scale bar, 100 m). Right, cell viability. (H) Cells were treated as indicated. RSL3, 0.5 μM for BT474 and 1 μM for MDA-MB-453; CCI-779, 0.5 μM; Oleic acid (OA), 0.5 mM; stearic acid (SA), 0.5 mM.
(§4) FIG. 7 A-J. PI3K-AKT-mTOR signaling regulates ferroptosis sensitivity. (A) Cells were treated as indicated. GDC-0941, 2 μM; MK-2206, 2 μM; RSL3, 1 μM; Fer-1, 1 μM. Lipid peroxidation was measured. (B) Cells were treated with indicated conditions. Torin, 1 μM; RSL3, 1 μM for MDA-MB-453 cells and 0.5 μM for BT474 cells; Fer-1, 1 μM. Cell death was measured. (C) Cells were treated with indicated conditions. RSL3, 10 μM for MCF cells and PC-3 cells, 5 μM for T47D cells, 1 μM for HepG2 cells; Torin, 1 μM; CCI-779, 0.5 μM. (D) Cells were treated as indicated. CCI-779, 0.5 μM; Torin, 1 μM; Fer-1, 1 μM. Cell death was staining by propidium iodide (PI) (red) or Sytox Green (green) (scale bar, 100 μm). (E-F) 3D spheroids for MDA-MB-453 cells and MCF7 cells were treated as indicated. […]

[2] = tested on: MDA-MB-453 cells; experiment: as above; format: cell-based, human; settings: RSL3 1 μM, GDC-0941 2 μM, MK-2206 2 μM, Torin 1 μM, CCI-779 0.5 μM, Fatostatin A 5 μM, CAY10566 5 μM
Experimental: as §1, §2, §3, §4

## Cc1nnc(-c2ccc(N3CCC(Oc4cc(F)ccc4Cl)CC3)nn2)o1 [CAY10566]
[1]
  sensitization to ferroptosis (cell death) induced by RSL3: sensitized the effect of RSL3
[2]
  sensitization to ferroptosis (cell death) induced by RSL3: sensitized the effect of RSL3

## CO[C@H]1C[C@@H]2CC[C@@H](C)[C@@](O)(O2)C(=O)C(=O)N2CCCC[C@H]2C(=O)O[C@H]([C@H](C)C[C@@H]2CC[C@@H](OC(=O)C(C)(CO)CO)[C@H](OC)C2)CC(=O)[C@H](C)/C=C(\C)[C@@H](O)[C@@H](OC)C(=O)[C@H](C)C[C@H](C)/C=C/C=C/C=C/1C [CCI-779, Temsirolimus]
[1]
  sensitization to ferroptosis (cell death) induced by RSL3: sensitize
[2]
  sensitization to ferroptosis (cell death) induced by RSL3: sensitize

## CCCc1cc(-c2nc(-c3ccc(C)cc3)cs2)ccn1 [Fatostatin A]
[1]
  sensitization to ferroptosis (cell death) induced by RSL3: sensitized ferroptosis
[2]
  sensitization to ferroptosis (cell death) induced by RSL3: sensitized ferroptosis

## CS(=O)(=O)N1CCN(Cc2cc3nc(-c4cccc5[nH]ncc45)nc(N4CCOCC4)c3s2)CC1 [GDC-0941]
[1]
  sensitization to ferroptosis (cell death) induced by RSL3: sensitized
[2]
  sensitization to ferroptosis (cell death) induced by RSL3: sensitized

## NC1(c2ccc(-c3nc4ccn5c(=O)[nH]nc5c4cc3-c3ccccc3)cc2)CCC1 [MK-2206]
[1]
  sensitization to ferroptosis (cell death) induced by RSL3: sensitized
[2]
  sensitization to ferroptosis (cell death) induced by RSL3: sensitized

## CCC(=O)N1CCN(c2ccc(-n3c(=O)ccc4cnc5ccc(-c6cnc7ccccc7c6)cc5c43)cc2C(F)(F)F)CC1 [Torin]
[1]
  sensitization to ferroptosis (cell death) induced by RSL3: sensitized
[2]
  sensitization to ferroptosis (cell death) induced by RSL3: sensitized
